In data set [1] the test system is SUM159. Briefly: Colony formation assay in SUM159. The class given is cell-based. To be noted: SUM159, half and full IC50 concentrations, 6 days. On the procedure:
The ability of compounds 1, 7A, and 7B to prevent colony formation was assessed in SUM159, a Triple Negative Breast Cancer cell line. Cells were grown to 80% confluency in T75 flasks in DMEM supplemented with 10% FBS, 1% amphotericin, 1% penicillin/streptomycin, and 5 μg/mL insulin. Media was discarded and trypsin added for 5 minutes to detach cells. Media was added to neutralize the trypsin and mixture was transferred to centrifuge tube. After centrifugation at 2000 RPM for 5 minutes, the pellet was washed with PBS and resuspended in 2 mL of above media. Cell density was assessed via hemocytometer and solution diluted to 2,000 cells/mL. Cells were plated in 6-well clear bottom plates at 2,000 cells/well. Treatment conditions included control (0.5% DMSO), and compounds 1, 7A, and 7B at both half and full IC5. concentrations, All treatments were plated in triplicate for a total of 21 wells used. Plates were placed in the incubator at 37° C. and 5-10% CO2 for six days. […]
(§1) To further characterize the improved bioactivity of compounds 7A and 7B to compound 1, colonogenic and mammmosphere formation assays were performed in TNBC cell line SUM159 at full and half IC50 values (FIG. 7A-7B). […] Using colony formation assay, we evaluated the antiproliferative effects of 7A in SUM159 cells. […]

The subject of data set [2] is TNBC cell lines MDA-MB-231, MDA-MB-468, SUM159. As to the kind of experiment: MTT cell viability assay, 24 h exposure, three TNBC cell lines. The class given is cell-based. On the procedure: Cell Viability Assay for Compounds 1-8: The cytotoxicity for compounds 1-8 was assessed in three Triple Negative Breast Cancer cell lines: MDA-MB-231, MDA-MB-468, an SUM159. Cells were grown to 80% confluency in T75 flasks. Media was discarded and trypsin added for 5 minutes to detach cells. Media was added to neutralize the trypsin and mixture was transferred to centrifuge tube. After centrifugation at 2000 RPM for 5 minutes, the pellet was washed with PBS and resuspended in 2 mL appropriate media. Cell density was assessed via hemocytometer and solution diluted to 40,000 cells/mL. A 96-well clear bottom plate was prepared by adding media to rows 1 and 8 and columns 1, 2, 11, and 12 to prevent evaporation from impacting sample wells. Cells were plated in the inner wells with 100 μL per well (4,000 cells/well). Plates were placed in the incubator at 37° C. and 5-10% CO2 overnight to allow cells to acclimate and adhere.
Compounds 1-8 were prepared as 80 mM stock solutions in DMSO. The stock was diluted 20 μL to 4 mL with the appropriate media to yield a new stock concentration of 400 μM and DMSO concentration of 0.5% v/v. This stock was used for six serial dilutions (1/2×) to obtain a range of concentrations from 6.25 to 400 μM. […]
Plates were removed from the incubator and treatment solutions removed. […] Plates were then read on a Biotek Synergy H1 Plate Reader at 570 nm (peak absorbance). […]
Background: Tetrazolium dyes change colour on reduction, which living cells bring about.

Data set [3] has as its system SUM159 mammosphere. Briefly: Mammosphere formation assay in SUM159. The class given is cell-based. To be noted: SUM159, half or full IC50 concentration, 6 days. On the procedure: The ability of Compounds 1, 7A, and 7B to prevent mammosphere formation was assessed in SUM159, a Triple Negative Breast Cancer cell line. Cells were grown to 80% confluency in T75 flasks in DMEM supplemented with 10% FBS, 1% amphotericin, 1% penicillin/streptomycin, and 5 μg/mL insulin, Media was discarded and trypsin added for 5 minutes to detach cells. Media was added to neutralize the trypsin and mixture was transferred to centrifuge tube. After centrifugation at 2000 RPM for 5 minutes, the pellet was washed with PBS and resuspended in 2 mL mammosphere media. Mammosphere media consists of MammoCult Human Medium (StemCell Technologies) supplemented with Heparin ([…], StermCellTechnologies) and Hydrocortisone (0.48 μg/ml, StemCell Technologies). Cell density was assessed via hemocytometer and solution diluted to 8,000 cells/mL in mammosphere media. A 24-well ultra-low-attachment clear bottom plate was prepared. Cells were plated in all wells with 500 μL per well (4,000 cells/well). […]
as §1

Data set [4] deals with TNBC cells, including MDA-MB-231 and MDA-MB-468 cells. Particulars: 24 h; read-out: activity of machilin D (comparison value); cited from earlier work.

With `C/C=C/c1ccc(O[C@@H](C)[C@@H](OCC(C)C)c2ccc(O)c(OC)c2)c(OC)c1` (racemic) [Compound 7A], the colony formation result in data set [1] is given as “colony formation was inhibited”. Moreover, the “cytotoxicity (IC50) comparison of diastereomers” value in data set [2] (MTT, all three TNBC cell lines) is reported as “significantly improved cytotoxicity values over 7B”. Besides, the mammosphere growth entry in data set [3] is on record as “effective inhibition”.
In the case of `C/C=C/c1ccc(O[C@@H](C)[C@@H](O)c2ccc(O)c(OC)c2)c(OC)c1` [machilin D], the IC50 in data set [4] was around 100 µM.
machilin C/D [Compound 1]: the colony formation entry in data set [1] was “slow colony formation”. Also, the IC50 in data set [2] (24 h exposure, range across MDA-MB-468, MDA-MB-231, SUM159, diastereomeric mixture) was 167 to 180 µM. Moreover, the mammosphere growth entry in data set [3] is “slow colony formation and mammosphere growth”.

Values taken from US20250090480A1, “UNIQUE ANALOGS OF NATURAL LIGNANS USEFUL FOR TREATING TRIPLE NEGATIVE BREAST CANCER” (University of Kentucky Research Foundation, priority 2023, published 2025).
